The text below walks through data of PubChem BioAssay AID248 (DTP/NCI, 2004).

This experiment deals with L1210 leukemia ip in BDF1 mice, survival T/C. As to the kind of experiment: NCI In Vivo Anticancer Drug Screen. Data for tumor model L1210 Leukemia (intraperitoneal) in B6D2F1 (BDF1) mice. To be noted: endpoint: mean survival time, higher = longer survival. An outline of the steps: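 Antitumor effect is assessed in tumor-bearing animals. Survival in the compound arm is compared with a vehicle-dosed control arm and expressed as their quotient.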

The mark [1] stands for this setting: dose: 75.0 mg/kg/injection, schedule: Q01DX001 (ip), vehicle: saline.
[2] abbreviates: dose: 100.0 mg/kg/injection, schedule: Q04DX003 (ip), vehicle: saline with Tween-80.
[3] abbreviates: dose: 150.0 mg/kg/injection, schedule: Q01DX001 (ip), vehicle: saline.
[4] abbreviates: dose: 300.0 mg/kg/injection, schedule: Q01DX001 (ip), vehicle: saline.
The mark [5] stands for this setting: dose: 100.0 mg/kg/injection, schedule: Q04DX003 (ip), vehicle: saline.
Where [6] appears, read: dose: 100.0 mg/kg/injection, schedule: Q01DX009 (ip), vehicle: Klucel (hydroxypropylcellulose) (HPC).
Where [7] appears, read: dose: 100.0 mg/kg/injection, schedule: Q04DX003 (ip), vehicle: Klucel (hydroxypropylcellulose) (HPC).
The mark [8] stands for this setting: dose: 200.0 mg/kg/injection, schedule: Q01DX009 (ip), vehicle: Klucel (hydroxypropylcellulose) (HPC).
Setting [9] is: dose: 200.0 mg/kg/injection, schedule: Q04DX003 (ip), vehicle: Klucel (hydroxypropylcellulose) (HPC).
The mark [10] stands for this setting: dose: 400.0 mg/kg/injection, schedule: Q01DX009 (ip), vehicle: Klucel (hydroxypropylcellulose) (HPC).
The mark [11] stands for this setting: dose: 400.0 mg/kg/injection, schedule: Q04DX003 (ip), vehicle: Klucel (hydroxypropylcellulose) (HPC).
Setting [12] is: dose: 100.0 mg/kg/injection, schedule: Q01DX001 (ip), vehicle: saline.
The mark [13] stands for this setting: dose: 200.0 mg/kg/injection, schedule: Q01DX001 (ip), vehicle: saline.
[14] abbreviates: dose: 100.0 mg/kg/injection, schedule: Q01DX009 (ip), vehicle: other.
Where [15] appears, read: dose: 25.0 mg/kg/injection, schedule: Q01DX009 (ip), vehicle: saline.
Setting [16] is: dose: 25.0 mg/kg/injection, schedule: Q04DX003 (ip), vehicle: saline.
Where [17] appears, read: dose: 50.0 mg/kg/injection, schedule: Q04DX003 (ip), vehicle: saline.

Where “and” joins values, the source holds several entries; their conditions need not be identical. Equal entries are not always repeated. Inconclusive results and toxic doses are left out.

As to `COc1cc2c3c(c4cc(OC)c(OC)cc4c2cc1OC)CN1CCC[C@H]1C3`, the T/C reads like this: (dose: 4.0 mg/kg/injection, schedule: Q01DX015 (ip), vehicle: water) 100 % of control; (dose: 6.0 mg/kg/injection, schedule: Q01DX015 (ip), vehicle: water) 100 % of control; (dose: 6.25 mg/kg/injection, schedule: Q01DX015 (ip), vehicle: water) 112 % of control; (dose: 8.0 mg/kg/injection, schedule: Q01DX Z (ip), vehicle: water) 107 % of control; (dose: 9.0 mg/kg/injection, schedule: Q01DX015 (ip), vehicle: water) 112 % of control; (dose: 12.0 mg/kg/injection, schedule: Q01DX Z (ip), vehicle: water) 100 % of control. The T/C was 117 % of control (dose: 14.0 mg/kg/injection, schedule: Q01DX015 (ip), vehicle: water); 108 % of control (dose: 15.0 mg/kg/injection, schedule: Q02DX Z (ip), vehicle: water); 98 % of control (dose: 25.0 mg/kg/injection, schedule: Q01DX015 (ip), vehicle: water); 150 % of control (dose: 30.0 mg/kg/injection, schedule: Q02DX Z (ip), vehicle: water); 154 % of control (dose: 250.0 mg/kg/injection, schedule: Q01DX Z (ip), vehicle: saline).

Regarding `CC1=CC(=O)C2(C)C(C)=C(C)C12C` (stereo not drawn), the T/C runs as follows: (dose: 50.0 mg/kg/injection, schedule: Q04DX003 (ip), vehicle: saline with Tween-80) 99 % of control; under setting [1], 105 % of control; under setting [2], 94 % of control; under setting [3], 111 % of control; under setting [4], 97 % of control.

Consider `CS/C(=C\C(=O)c1ccccc1)C(=O)O`, for which the T/C by setting is: (dose: 100.0 mg/kg/injection, schedule: Q04DX002 (ip), vehicle: saline) 110 % of control; (dose: 200.0 mg/kg/injection, schedule: Q04DX002 (ip), vehicle: saline) 100 % of control; (dose: 400.0 mg/kg/injection, schedule: Q04DX002 (ip), vehicle: saline) 100 % of control.

On to `[O-][n+]1ccnc2ccccc21`, for which the T/C runs as follows: under setting [5], 100 % of control; (dose: 200.0 mg/kg/injection, schedule: Q04DX003 (ip), vehicle: saline) 108 % of control; (dose: 400.0 mg/kg/injection, schedule: Q04DX003 (ip), vehicle: saline) 110 % of control.

With `CC(=O)c1ccc(C(C)=O)c(OCc2ccccc2)c1`, the T/C is, setting by setting: under setting [6], 101 % of control; under setting [7], 103 % of control; under setting [8], 95 % of control; under setting [9], 98 % of control; under setting [10], 92 % of control; under setting [11], 97 % of control.

For the molecule `CC[P+]1(c2ccccc2)CCCc2ccc3ccccc3c21` (stereo not drawn), the T/C (dose: 6.25 mg/kg/injection, schedule: Q01DX009 (ip), vehicle: saline with Tween-80) was 117 % of control.

On to `COC1OCCCC1Br` (stereo not drawn), for which the T/C under setting [12] is 91 % of control; the T/C under setting [13] is 102 % of control; the T/C (dose: 400.0 mg/kg/injection, schedule: Q01DX001 (ip), vehicle: saline) was 107 % of control.

Turning to `S=c1nc2[nH]c3ccccc3c2n[nH]1`, the T/C runs as follows: under setting [2], 94 % of control; (dose: 200.0 mg/kg/injection, schedule: Q04DX003 (ip), vehicle: saline with Tween-80) 89 % of control.

In the case of `Cc1cc([N+](=O)[O-])ccc1NC(=O)C(Br)C(Br)C(=O)O` (stereo not drawn), the T/C reads like this: (dose: 25.0 mg/kg/injection, schedule: Q01DX009 (ip), vehicle: other) 101 % of control; (dose: 50.0 mg/kg/injection, schedule: Q01DX009 (ip), vehicle: other) 102 % of control; under setting [14], 93 % of control and 94 % of control.

Take `COc1cc2c(cc1OC)C(C)=NCC2`: the T/C was 103 % of control (dose: 12.0 mg/kg/injection, schedule: Q01DX009 (ip), vehicle: saline); 94 % of control under setting [15]; 105 % of control under setting [16]; 114 % of control (dose: 50.0 mg/kg/injection, schedule: Q01DX001 (ip), vehicle: saline); 110 % of control (dose: 50.0 mg/kg/injection, schedule: Q01DX009 (ip), vehicle: saline); 105 % of control under setting [17]. Besides, the T/C runs as follows: under setting [12], 104 % of control; under setting [5], 102 % of control.

For `Oc1c(I)cc(I)c2cccnc12`, the T/C (dose: 100.0 mg/kg/injection, schedule: Q01DX001 (ip), vehicle: Klucel (hydroxypropylcellulose) (HPC)) is 102 % of control and the T/C (dose: 200.0 mg/kg/injection, schedule: Q01DX001 (ip), vehicle: Klucel (hydroxypropylcellulose) (HPC)) was 106 % of control.

As to `CN(C)c1ccc(C=Nc2cccc(Cl)c2)cc1`, the T/C reads like this: under setting [7], 91 % of control; under setting [9], 93 % of control; under setting [11], 91 % of control.

Regarding `Cn1c(CC(O)(C(F)(F)F)C(F)(F)F)cc2ccccc21`, the T/C runs as follows: under setting [14], 95 % of control; (dose: 200.0 mg/kg/injection, schedule: Q01DX009 (ip), vehicle: other) 95 % of control; (dose: 400.0 mg/kg/injection, schedule: Q01DX009 (ip), vehicle: other) 93 % of control.

With `O=C(O)C1C(=O)Oc2c(cccc2[N+](=O)[O-])C1O` (stereo not drawn), the T/C is 94 % of control (dose: 100.0 mg/kg/injection, schedule: Q01DX001 (ip), vehicle: carboxymethylcellulose (CMC)); 92 % of control (dose: 200.0 mg/kg/injection, schedule: Q01DX001 (ip), vehicle: carboxymethylcellulose (CMC)); 92 % of control (dose: 400.0 mg/kg/injection, schedule: Q01DX001 (ip), vehicle: carboxymethylcellulose (CMC)).

Take `c1ccc([P+]2(Cc3cccc4ccccc34)CCc3[nH]c4ccccc4c3C2)cc1` (stereo not drawn): the T/C reads like this: under setting [7], 96 % of control; under setting [9], 98 % of control.

For `N#CC(N)=NC1CCC(C2CCC(N)CC2)CC1` (stereo not drawn), the T/C was 97 % of control under setting [6]; 107 % of control under setting [7]; 97 % of control under setting [8]; 94 % of control under setting [9]; 98 % of control under setting [10]; 97 % of control under setting [11].

In the case of `CCC1=C(C)CC2c3cc(OC)c(OC)cc3CCN2C1` (stereo not drawn), the T/C (dose: 4.0 mg/kg/injection, schedule: Q04DX003 (ip), vehicle: water) was 110 % of control; the T/C (dose: 8.0 mg/kg/injection, schedule: Q04DX003 (ip), vehicle: water) is 103 % of control; the T/C (dose: 16.0 mg/kg/injection, schedule: Q04DX003 (ip), vehicle: water) is 104 % of control; the T/C (dose: 32.0 mg/kg/injection, schedule: Q04DX003 (ip), vehicle: water) was 108 % of control; the T/C (dose: 64.0 mg/kg/injection, schedule: Q04DX003 (ip), vehicle: water) is 106 % of control; the T/C under setting [1] was 103 % of control. Also, the T/C under setting [3] was 94 % of control and the T/C under setting [4] is 101 % of control.

Turning to `O=Cc1cccn1Cc1cc2c(cc1[N+](=O)[O-])OCO2`, the T/C was 101 % of control (dose: 25.0 mg/kg/injection, schedule: Q04DX002 (ip), vehicle: Klucel (hydroxypropylcellulose) (HPC)); 101 % of control (dose: 50.0 mg/kg/injection, schedule: Q04DX002 (ip), vehicle: Klucel (hydroxypropylcellulose) (HPC)); 97 % of control (dose: 100.0 mg/kg/injection, schedule: Q04DX002 (ip), vehicle: Klucel (hydroxypropylcellulose) (HPC)).

As for `COCCNCCN1CCN(CCCN2c3ccccc3Sc3ccc(C(F)(F)F)cc32)CC1`, the T/C (dose: 6.25 mg/kg/injection, schedule: Q04DX003 (ip), vehicle: saline) was 110 % of control; the T/C (dose: 12.5 mg/kg/injection, schedule: Q01DX009 (ip), vehicle: saline) is 107 % of control; the T/C (dose: 12.5 mg/kg/injection, schedule: Q04DX003 (ip), vehicle: saline) was 96 % of control and 100 % of control; the T/C under setting [15] was 105 % of control; the T/C under setting [16] is 95 % of control and 105 % of control; the T/C under setting [17] was 102 % of control and 108 % of control.

Take `CC(C)c1ccc(/C=C2\CSC/C(=C/c3ccc(C(C)C)cc3)C2=O)cc1`: the T/C is 95 % of control under setting [13] and 91 % of control (dose: 200.0 mg/kg/injection, schedule: Q01DX009 (ip), vehicle: saline).
